Data as given in patent US20240343732A1, “COMPOUNDS FOR DEGRADATION OF CYCLIN-DEPENDENT KINASE 7(CDK7)” (QURIENT CO., LTD., priority 2021, published 2024).

How the values were obtained:
CDK1 = biological target: T1, CDK1 (Homo sapiens, UniProt P06493); assay: Binding assay (FRET, LanthaScreen Eu, Tracer236) for CDK1; conditions: for IC50: read-out: CDK1 IC50 (enzyme binding assay)
T1 construct: His; purchased Invitrogen PR4768C
Description: (§1) Inhibition activity of compound to CDK7 kinase was tested in a binding assay which was applied to the FRET (fluorescence resonance energy transfer) principle from the europium (Eu) donor fluorophore to the acceptor fluorophore on the kinase tracer. Test compounds were made to 1.125 mM of compound solution, and then this compound solution 4-fold serial diluted in 8 steps using an automated liquid handler (JANUS™, PerkinElmer). 80 nL/well of each diluted compound solution was added into the 384-well plate (Greiner, Cat #784075) first and 7.5 ul/well of working solution [5 nM of CDK7/CycH/MNAT1 (Invitrogen, Cat #PR6749B), 4 nM of Biotin anti-His Tag Antibody (Invitrogen, Cat #PV6090), and LanthaScreen® Eu-Streptavidin (Invitrogen, Cat #PV6025)] was added. After mixing the solution well, the same volume with the working solution of Tracer236 (Invitrogen, Cat #PV5592) was added into each well in the plate. The plate was incubated for 60 minutes at room temperature and then all the fluorescence were measured using Envision leader (Perkin Elmer, USA) [Laser as excitation light; […] as the first and the second emission filter]. Data was analysed using XL Fit software.
(§2) All of the synthesized compounds were screened in the above-mentioned assay procedure. To identify the inhibition activity of compounds for other CDKs including CDK1 (Invitrogen, Cat #PR4768C), CDK2 (Invitrogen, Cat #PR4448B) and CDK5 (Invitrogen, Cat #PR8543B) were tested using the same protocol under reasonable concentration of Tracer236 and kinases for each assay. The formula for the assay buffer summarized in below table.

CDK7/CycH/MNAT1 = biological target: T2, CDK7/CycH/MNAT1 (Homo sapiens, UniProt P50613); assay: Binding assay (FRET, LanthaScreen Eu, Tracer236) for CDK7; conditions: read-out: CDK7 IC50 (enzyme binding assay)
T2 construct: His; purchased Invitrogen PR6749B
T2 sequence (P50613 whole entry): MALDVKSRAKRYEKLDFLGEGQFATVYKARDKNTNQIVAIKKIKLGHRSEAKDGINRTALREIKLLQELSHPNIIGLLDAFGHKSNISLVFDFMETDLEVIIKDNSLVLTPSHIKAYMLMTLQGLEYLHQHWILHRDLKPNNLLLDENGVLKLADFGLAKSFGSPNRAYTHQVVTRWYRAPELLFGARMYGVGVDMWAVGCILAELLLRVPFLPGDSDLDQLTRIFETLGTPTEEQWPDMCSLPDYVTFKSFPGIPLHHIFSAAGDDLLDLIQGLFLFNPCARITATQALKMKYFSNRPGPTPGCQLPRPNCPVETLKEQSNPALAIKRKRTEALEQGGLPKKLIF
T2 sequence (P51946 whole entry partner): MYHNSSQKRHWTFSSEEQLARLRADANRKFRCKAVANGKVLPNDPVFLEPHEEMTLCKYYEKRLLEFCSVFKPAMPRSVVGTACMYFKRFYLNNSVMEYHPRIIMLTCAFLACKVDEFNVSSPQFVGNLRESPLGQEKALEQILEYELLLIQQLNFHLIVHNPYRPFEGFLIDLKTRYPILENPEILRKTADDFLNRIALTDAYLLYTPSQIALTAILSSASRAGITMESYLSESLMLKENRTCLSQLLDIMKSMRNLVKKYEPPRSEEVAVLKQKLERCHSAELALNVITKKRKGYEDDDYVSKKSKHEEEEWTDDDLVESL
T2 sequence (P51948 whole entry partner): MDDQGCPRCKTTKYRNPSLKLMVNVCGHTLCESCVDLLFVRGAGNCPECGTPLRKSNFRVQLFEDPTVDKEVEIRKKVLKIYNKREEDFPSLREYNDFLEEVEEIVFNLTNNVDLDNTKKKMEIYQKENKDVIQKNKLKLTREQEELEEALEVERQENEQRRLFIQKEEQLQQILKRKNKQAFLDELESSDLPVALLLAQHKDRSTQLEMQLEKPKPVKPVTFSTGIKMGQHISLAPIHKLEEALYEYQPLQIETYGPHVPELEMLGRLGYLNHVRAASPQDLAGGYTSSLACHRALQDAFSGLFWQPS
Description: as §1, §2

CDK2 = biological target: T3, CDK2 (Homo sapiens, UniProt P24941); assay: Binding assay (FRET, LanthaScreen Eu, Tracer236) for CDK2; conditions: for IC50: read-out: CDK2 IC50 (enzyme binding assay)
T3 construct: His; purchased Invitrogen PR4448B
Description: as §1, §2

CDK7 protein = biological target: T4, CDK7 protein (Homo sapiens, UniProt P50613); assay: Western blot assay for CDK7 protein degradation in A2780 cells; format: cell-based; conditions: 24 hours;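 note: A is DC50 up to 100 nM B is 100 to 1000 nM C is above 1000 nM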
T4 construct: To verify endogenous CDK7 protein degradation; endogenous in cells; host or cells: A2780 (ECACC 93112519)
T4 sequence (P50613 whole entry): as the sequence (P50613 whole entry) above
Description: Human ovarian cancer cell line, A2780 (Cat #93112519) was obtained from ECACC. Cells were grown in RPMI-1640 media (Invitrogen, Cat #22400105) supplemented with 10% FBS (Hyclone, Cat #SH30084.03) and 1% penicillin/streptomycin (Hyclone, Cat #SV30010) and cultured at 37° C., 5% Co2 in a humidified chamber. All cell lines were routinely tested for mycoplasma.
To verify endogenous CDK7 protein degradation upon treatment of CDK7-specific degrader, the western blot assay was conducted a 24 hours' time period. 6×10^5 cells/well of A2780 cells were plated in 6-well plate. After 24 hours, the cells were treated with various concentrations of the compound corresponding range. DMSO solvent without compound served as a control and final DMSO concentration was not to exceed 0.1% of total volume. After 24 hours of incubation at 37° C., 5% Co2 incubator, cells were collected and lysed with 60 ul of lysis buffer. Collected lysates were incubated for 30 min on ice and collect supernatant through centrifugation at 12,000 rpm for 10 min at 4° C. The protein in lysates were quantified with BCA protein quantification kit (Pierce, Cat #23227) following manufacture's protocol. Cell lysates were diluted into 1 ug/ul of concentration with lysis buffer. 20 ug of protein was loaded to each well of 4˜12% Bis-Tris gel (Invitrogen, Cat #NP0336BOX) with MOPS running buffer (Invitrogen, Cat #NP0001). The proteins were transferred from gel to membrane and incubated with primary antibody as followed at 4° C. overnight; CDK7 (CST, Cat #2090S) and β-actin (Santa Cruz, Cat #sc-47778) 1:20,000. The signals were developed and acquired with ImageQuant™ LAS 4000.

CDK5 = biological target: T5, CDK5 (Homo sapiens, UniProt Q00535); assay: Binding assay (FRET, LanthaScreen Eu, Tracer236) for CDK5; conditions: for IC50: read-out: CDK5 IC50 (enzyme binding assay)
T5 construct: His; purchased Invitrogen PR8543B
T5 sequence (Q00535 whole entry): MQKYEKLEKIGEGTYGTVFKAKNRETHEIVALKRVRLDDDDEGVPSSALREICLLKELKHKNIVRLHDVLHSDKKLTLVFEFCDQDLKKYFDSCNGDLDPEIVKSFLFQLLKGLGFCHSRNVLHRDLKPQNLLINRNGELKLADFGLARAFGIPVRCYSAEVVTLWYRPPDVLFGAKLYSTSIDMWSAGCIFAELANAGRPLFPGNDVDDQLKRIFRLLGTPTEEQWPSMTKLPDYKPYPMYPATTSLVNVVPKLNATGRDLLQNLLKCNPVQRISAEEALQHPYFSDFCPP
T5 sequence (Q15078 99-307 partner limits assumed): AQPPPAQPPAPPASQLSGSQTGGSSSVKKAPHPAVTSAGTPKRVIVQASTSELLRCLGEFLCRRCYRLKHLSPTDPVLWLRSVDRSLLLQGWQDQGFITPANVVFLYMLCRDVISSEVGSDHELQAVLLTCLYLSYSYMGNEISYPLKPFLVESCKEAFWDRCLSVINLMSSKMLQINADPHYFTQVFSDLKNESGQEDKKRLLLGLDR
Description: as §1, §2

T1 sequence (P06493 whole entry): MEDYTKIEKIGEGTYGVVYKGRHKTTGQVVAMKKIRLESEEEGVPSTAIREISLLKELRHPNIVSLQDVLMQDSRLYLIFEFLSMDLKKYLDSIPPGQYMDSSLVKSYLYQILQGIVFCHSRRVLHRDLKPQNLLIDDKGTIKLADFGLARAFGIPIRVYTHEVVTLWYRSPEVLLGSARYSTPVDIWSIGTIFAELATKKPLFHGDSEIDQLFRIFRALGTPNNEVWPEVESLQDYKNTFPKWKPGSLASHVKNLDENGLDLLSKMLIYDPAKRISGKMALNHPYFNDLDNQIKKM
T1 sequence (P14635 whole entry partner): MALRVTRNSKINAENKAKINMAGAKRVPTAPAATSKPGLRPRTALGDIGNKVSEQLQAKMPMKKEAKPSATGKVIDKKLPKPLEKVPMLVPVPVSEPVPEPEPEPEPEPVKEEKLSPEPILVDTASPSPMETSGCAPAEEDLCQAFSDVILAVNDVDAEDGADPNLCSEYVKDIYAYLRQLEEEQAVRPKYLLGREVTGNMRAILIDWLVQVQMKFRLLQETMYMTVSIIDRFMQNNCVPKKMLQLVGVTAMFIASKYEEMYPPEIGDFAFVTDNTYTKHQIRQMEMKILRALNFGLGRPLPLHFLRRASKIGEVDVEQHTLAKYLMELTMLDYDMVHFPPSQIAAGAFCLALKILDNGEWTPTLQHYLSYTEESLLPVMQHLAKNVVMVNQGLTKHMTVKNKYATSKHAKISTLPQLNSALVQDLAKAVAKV

SMILES	CDK1/CDK7: Selectivity of CDK7 inhibition over CDK1 inhibition (CDK1)	IC50 (CDK1) [nM]	IC50 (CDK7/CycH/MNAT1) [nM]	CDK2/CDK7: Selectivity of CDK7 inhibition over CDK2 inhibition (CDK2)	IC50 (CDK2) [nM]	Compound concentration that caused 50% CDK7 protein degradation in A2780 cells (DC50, nM) (CDK7 protein)	CDK5/CDK7: Selectivity of CDK7 inhibition over CDK5 inhibition (CDK5)	IC50 (CDK5) [nM]
CC(C)c1cnn2c(NCc3ccccc3-c3nccc4cc(NC(=O)COCCOCCOCCNC(=O)CNc5cccc6c5C(=O)N(C5CCC(=O)NC5=O)C6=O)ccc34)nc(O[C@@H]3CCCNC3)nc12 (some centres unmarked) [Compound 9]	A (A indicates [fold] > 500)	> 1000	≤ 100	A (A indicates [fold] > 500)	> 1000	B or A	A (A indicates [fold] > 500)	> 1000
CC(C)c1cnn2c(NCc3ccccc3-c3nccc4cc(N)ccc34)nc(O[C@@H]3CCCN(CCOCCOCCOCCNC(=O)CNc4cccc5c4C(=O)N(C4CCC(=O)NC4=O)C5=O)C3)nc12 (some centres unmarked) [Compound 6]	A (A indicates [fold] > 500)	> 1000	≤ 100	A (A indicates [fold] > 500)	> 1000		A (A indicates [fold] > 500)	> 1000
CN[C@@H](C)C(=O)N[C@H](C(=O)N1CCC[C@H]1c1nc(C(=O)c2cccc(OCCOCCOCCNc3ccc4c(-c5ccccc5CNc5nc(O[C@@H]6CCCNC6)nc6c(C(C)C)cnn56)nccc4c3)c2)cs1)C1CCCCC1 [Compound 18]	A (A indicates [fold] > 500)	> 1000	≤ 100	A (A indicates [fold] > 500)	> 1000		A (A indicates [fold] > 500)	> 1000
Cc1ncsc1-c1ccc(CNC(=O)[C@@H]2C[C@@H](O)CN2C(=O)[C@@H](NC(=O)C2(F)CC2)C(C)(C)C)c(OCCOCCOCCOCCOCCOCCNc2ccc3c(-c4ccccc4CNc4nc(O[C@@H]5CCCNC5)nc5c(C(C)C)cnn45)nccc3c2)c1 [Compound 23]	A (A indicates [fold] > 500)	> 1000	≤ 100	A (A indicates [fold] > 500)	> 1000		A (A indicates [fold] > 500)	> 1000
CC(C)c1cnn2c(NCc3ccccc3-c3nccc4cc(N)ccc34)nc(O[C@@H]3CCCN(CCOCCOCCNC(=O)CNc4cccc5c4C(=O)N(C4CCC(=O)NC4=O)C5=O)C3)nc12 (some centres unmarked) [Compound 5]	A (A indicates [fold] > 500)	> 1000	≤ 100	A (A indicates [fold] > 500)	> 1000		A (A indicates [fold] > 500)	> 1000
CC(C)c1cnn2c(NCc3ccccc3-c3nccc4cc(N5CCN(CC6CCN(c7cc8c(cc7F)C(=O)N(C7CCC(=O)NC7=O)C8=O)CC6)CC5)ccc34)nc(O[C@@H]3CCCNC3)nc12 (some centres unmarked) [Compound 35]	B (B indicates 50 < [fold] ≤ 500)	> 1000	100 to 1000	B (B indicates 50 < [fold] ≤ 500)	> 1000		B (B indicates 50 < [fold] ≤ 500)	> 1000
CC(C)c1cnn2c(NCc3ccccc3-c3nccc4cc(NCCOCCOCCOCCNC(=O)CNc5cccc6c5C(=O)N(C5CCC(=O)NC5=O)C6=O)ccc34)nc(O[C@@H]3CCCNC3)nc12 (some centres unmarked) [Compound 8]	A (A indicates [fold] > 500)	> 1000	≤ 100	A (A indicates [fold] > 500)	> 1000		B (B indicates 50 < [fold] ≤ 500)	> 1000
Cc1ncsc1-c1ccc(CNC(=O)[C@@H]2C[C@@H](O)CN2C(=O)[C@@H](NC(=O)C2(F)CC2)C(C)(C)C)c(OCCN2CCC(N3CCC(CNc4ccc5c(-c6ccccc6CNc6nc(N[C@@H]7CCCNC7)nc7c(C(C)C)cnn67)nccc5c4)CC3)CC2)c1 [Compound 29]	B (B indicates 50 < [fold] ≤ 500)	> 1000	≤ 100	B (B indicates 50 < [fold] ≤ 500)	> 1000		B (B indicates 50 < [fold] ≤ 500)	> 1000
CC(C)c1cnn2c(NCc3ccccc3-c3nccc4cc(N5CCC(CN6CCN(c7cc8c(cc7F)C(=O)N(C7CCC(=O)NC7=O)C8=O)CC6)CC5)ccc34)nc(O[C@@H]3CCCNC3)nc12 (some centres unmarked) [Compound 36]	B (B indicates 50 < [fold] ≤ 500)	> 1000	≤ 100	B (B indicates 50 < [fold] ≤ 500)	> 1000		B (B indicates 50 < [fold] ≤ 500)	> 1000
CC(C)c1cnn2c(NCc3ccccc3-c3nccc4cc(NC(=O)/C=C/CN(C)CCOCCOCCOCCNC(=O)CNc5cccc6c5C(=O)N(C5CCC(=O)NC5=O)C6=O)ccc34)nc(N3CCC(N)CC3)nc12 (centres unmarked) [Compound 3]	A (A indicates [fold] > 500)	> 1000	≤ 100	A (A indicates [fold] > 500)	> 1000		A (A indicates [fold] > 500)	> 1000
CC(C)c1cnn2c(NCc3ccccc3-c3nccc4cc(NC(=O)/C=C/CN(C)CCOCCOCCNC(=O)CNc5cccc6c5C(=O)N(C5CCC(=O)NC5=O)C6=O)ccc34)nc(N3CCC(N)CC3)nc12 (centres unmarked) [Compound 2]	A (A indicates [fold] > 500)	> 1000	≤ 100	A (A indicates [fold] > 500)	> 1000		A (A indicates [fold] > 500)	> 1000
C=C(F)C(=O)Nc1ccc2c(-c3ccccc3CNc3nc(NC[C@H]4CCN(CCOCCOCCNC(=O)CNc5cccc6c5C(=O)N(C5CCC(=O)NC5=O)C6=O)C[C@@H]4O)nc4c(C(C)C)cnn34)nccc2c1 (some centres unmarked) [Compound 4]	A (A indicates [fold] > 500)	> 1000	100 to 1000	C (C indicates [fold] ≤ 50)	> 1000		B (B indicates 50 < [fold] ≤ 500)	> 1000
CC(C)c1cnn2c(NCc3ccccc3-c3nccc4cc(NC(=O)/C=C/CN(C)CCOCCNC(=O)CNc5cccc6c5C(=O)N(C5CCC(=O)NC5=O)C6=O)ccc34)nc(N3CCC(N)CC3)nc12 (centres unmarked) [Compound 1]	A (A indicates [fold] > 500)	> 1000	≤ 100	A (A indicates [fold] > 500)	> 1000		A (A indicates [fold] > 500)	> 1000
